Test results: patent publication US9403756B2, “N-phenyl anthranilic acid derivatives and uses thereof” (Ramot at Tel-Aviv University Ltd., priority 2007, dated 2016)
“Also recorded” adds a separate entry of the source.

Tests used:
[1] = target: T1, Kv7.2/3 channels (Homo sapiens, UniProt O43525+O43526); assay: Kv7.2/3 channels coexpressed in CHO cells, whole-cell patch-clamp; type: cell-based
T1 construct: expressed in transfected cells; host or cells: CHO cells
Method: Chinese hamster ovary (CHO) cells were grown in Dulbecco's modified Eagle's medium (DMEM) supplemented with 2 mM glutamine, 10% fetal calf serum and antibiotics. Briefly, 40,000 cells seeded on poly-D-lysine-coated glass coverslips (13 mm diameter) in a 24-multiwell plate were transfected with pIRES-CD8 (0.5 μg) as a marker for transfection, and with Kv7.2 (0.5 μg) and Kv7.3 (0.5 μg) or TRPV1 […] or TRPV6 […].
For electrophysiology, transfected cells were visualized approximately 40 hours following transfection, using anti-CD8 antibody-coated beads. Transfection was performed using Fugene 6 (Roche, Indianapolis Ind., USA) according to the manufacturer's protocol.
Voltage-clamp recordings in CHO cells were performed, using the whole-cell configuration of the patch-clamp technique. Signals were amplified using an Axopatch 200B patch-clamp amplifier (Molecular Devices, Sunnyvale, Calif.), sampled at 2 kHz and filtered at 800 Hz via a 4-pole Bessel low pass filter. […] The patch pipettes were pulled from borosilicate glass (Warner Instrument Corp, USA) with a resistance of 2-5 MΩ. For K^+ current recordings in CHO cells, the intracellular pipette solution contained (in mM): 130 KCl, 1 MgCl2, 5 K2ATP, 5 EGTA, 10 HEPES, adjusted with KOH to pH 7.4 (290 mOsm). The extracellular solution contained (in mM): 140 NaCl, 4 KCl, 1.8 CaCl2, 1.2 MgCl2, 11 glucose, 5.5 HEPES, adjusted with NaOH to pH 7.4 (310 mOsm).
Data analysis was performed using the Clampfit program (pClamp 9.2, Molecular Devices), Microsoft Excel (Microsoft) and Prism 4.0 (GraphPad). Chord conductance (G) was calculated by using the following equation: G=I/(V−Vrev) where I corresponds to the current amplitude measured at the end of the pulse and Vrev, the calculated reversal potential. G was estimated at various test voltages V and then, normalized to a maximal conductance value, Gmax. Activation curves were fitted by one Boltzmann distribution: G/Gmax=1/{1+exp[(V50−V)/s]} where V50 is the voltage at which the current is half-activated and s is the slope factor. All data were expressed as mean±SEM. Statistically significant differences were assessed by Student's t-test. Analysis of sEPSCs and sIPSCs was done using the Clampfit program (pClamp 9.2, Molecular Devices) and included evaluation of the individual events as well as the average event amplitude and the integral of the event (total charge transfer).
In these studies, the impact of the compounds on M-channel activity was measured by the heterologous coexpression of Kv7.2 and Kv7.3 subunits in CHO cells.

[2] = tested on: DRG neurons; assay: Current-clamp recordings in cultured DRG neurons; type: cell-based, rat; settings: 1 μM NH17; about 10-20 pA for 400 ms; control 1±0; n=5
[3] = tested on: DRG neurons; assay: Current-clamp recordings in cultured DRG neurons; type: cell-based, rat
Method: For dorsal root ganglion (DRG) neuronal cultures, ganglia were dissected from 2-5 day-old Sprague-Dawley rats killed by decapitation. DRGs were placed in Hank's balanced saline solution (HBSS) and prepared by enzymatic dissociation. Briefly, after 30 minutes incubation in 5 mg/ml dispase, 2 mg/ml collagenase type 1A and 0.1 mg/ml DNase (Invitrogen/Gibco, Carlsbad, Calif.) in Ca^2+ and Mg^2+-free HBSS, the ganglia were mechanically triturated with a fire-polished glass Pasteur pipette. The ganglia were then centrifuged for 5 minutes at 80×g and resuspended in DMEM supplemented with 2 mM L-glutamine, 16.5 mM NaHCO3, 6 g/l glucose, 5 ml penicillin/streptomycin and 10% fetal calf serum.
For electrophysiological recording, dissociated neurons were plated on 13 mm glass coverslips, previously coated with poly-D-lysine (1 mg/ml) and laminin (10 μg/ml) and used at 1-2 days in culture.
For current-clamp recordings in primary cultured neurons, the patch pipettes were filled with (in mM): 135 KCl, 1 K2ATP, 1 MgATP, 2 EGTA, 1.1 CaCl2, 5 glucose, 10 HEPES, adjusted with KOH at pH 7.4 (315 mOsm). The external solution contained (in mM): 150 NaCl, 2.5 KCl, 2 CaCl2, 2 MgCl2, 15 glucose, 10 HEPES, adjusted with NaOH at pH 7.4 (325 mOsm). Recordings were sampled at 5 kHz and filtered at 2 KHz via a 4-pole Bessel low pass filter. A liquid junction potential of about −15.6 mV was measured between the intracellular and saline solutions and corrected on-line.
For evoking spike discharges, 75-200 pA square depolarizing current pulses were injected into neurons for 400 ms. For rheobase current measurements, 100-1100 pA square depolarizing current pulses were injected into neurons for 2 ms.

[4] = target: T2, KCNQ2 mutant R207W (Homo sapiens, UniProt O43526, R207W); type: cell-based; settings: RTG (25 μM, −40 mV, FIG. 11B)
T2 construct: expressed in transfected cells; host or cells: CHO cells
From the text: FIGS. 10A-D present the potentiating effect of NH29, an exemplary channel opener compound according to embodiments of the present invention, on wild type KCNQ2 (FIGS. 10A and 10B) and R207W mutant (FIGS. 10C and 10D) channels, as expressed in activation curve measurements, showing that NH29 left-shifts the activation curve (ΔV50) by −15.5 mV and −5.5 mV in the case of the wild-type and the mutant, respectively, and showing that NH29 enhances the current of wild-type and the mutant by about 3.4-fold (at −40 mV) and 1.5-fold (at −20 mV), respectively.
(§1) FIGS. 11A-F present the potentiating effect of NH29, an exemplary channel opener compound according to embodiments of the present invention, and Retigabine, on KCNQ2 mutants R207W and W236L mutant. Shown are representative traces recorded from CHO cell transfected with the KCNQ2 mutant R207W 0, 1 and 4-4.5 minutes after external application of 25 μM of NH29 and wherein the membrane potential was stepped from −90 mV holding potential to −20 mV for 1.5 seconds pulse duration (FIG. 11A), or 0, 1 and 4 minutes after external application of 25 μM of Retigabine wherein the membrane potential was stepped from −90 mV holding potential to −40 mV for 1.5 seconds pulse duration (FIG. 11B). FIGS. 11C and 11D show representative traces recorded from CHO cells transfected with the KCNQ2 mutant W236L 0, 1 and 6 minutes after external application of 25 μM of NH29 (FIG. 11C) or 0 and 5 minutes after external application of 10 μM of Retigabine (FIG. 11D) and wherein the membrane potential was stepped from −90 mV holding potential to −40 mV for 1.5 seconds pulse duration. FIG. 11E presents superimposed traces, showing the effects of Retigabine (RTG) and NH29 on the channel activity of KCNQ2 mutant W236L as measured at −40 mV; and FIG. 11F presents a bar diagram comparing the potentiating effect of NH29 and Retigabine on native KCNQ2 and KCNQ2 mutants, wherein the opener effect is expressed as percent of the control current in the absence of the opener.
Voltage-clamp recordings in CHO cells were performed, using the whole-cell configuration of the patch-clamp technique. Signals were amplified using an Axopatch 200B patch-clamp amplifier (Molecular Devices, Sunnyvale, Calif.), sampled at 2 kHz and filtered at 800 Hz via a 4-pole Bessel low pass filter. Data were acquired using pClamp 9.2 software (Molecular Devices) and an IBM compatible Pentium IV computer in conjunction with a DigiData 1322A interface (Molecular Devices). The patch pipettes were pulled from borosilicate glass (Warner Instrument Corp, USA) with a resistance of 2-5 MΩ. For K^+ current recordings in CHO cells, the intracellular pipette solution contained (in mM): 130 KCl, 1 MgCl2, 5 K2ATP, 5 EGTA, 10 HEPES, adjusted with KOH to pH 7.4 (290 mOsm). The extracellular solution contained (in mM): 140 NaCl, 4 KCl, 1.8 CaCl2, 1.2 MgCl2, 11 glucose, 5.5 HEPES, adjusted with NaOH to pH 7.4 (310 mOsm). Series resistances (3-13 MΩ) were compensated (75-90%) and periodically monitored.

[5] = target: T3, KCNQ2 mutant R198A (Homo sapiens, UniProt O43526, R198A); assay: KCNQ2 S4 mutant R198A; type: cell-based; settings: RTG
T3 construct: expressed in transfected cells
From the text: (§2) FIGS. 12A-F present the potentiating effect of NH29, an exemplary channel opener compound according to embodiments of the present invention, on selected KCNQ2 mutants. Shown are bar diagrams comparing the potentiating effect of NH29 on native KCNQ2 and KCNQ2 mutants, wherein the mutated amino acids are located at the S1-S2 helix region (FIG. 12A) or S4 helix region (FIG. 12D) and wherein the opener effect is expressed as percent of the control current in the absence of the opener. For comparison, marked as a green line, is the observed current increase of native KCNQ2 by NH29. FIGS. 12B 12C, 12E and 12F present representative traces recorded from CHO cell transfected with the KCNQ2 mutant S122A, S121A, L206C and R201A respectively, before and after external application of 25 μM of NH29 and wherein the membrane potential was stepped from −90 mV holding potential to −40 mV for 1.5 seconds pulse duration.
(§3) Voltage-clamp recordings in CHO cells were performed, using the whole-cell configuration of the patch-clamp technique. Signals were amplified using an Axopatch 200B patch-clamp amplifier (Molecular Devices, Sunnyvale, Calif.), sampled at 2 kHz and filtered at 800 Hz via a 4-pole Bessel low pass filter. […] Series resistances (3-13 MΩ) were compensated (75-90%) and periodically monitored.

[6] = target: T4, KCNQ2 mutant W236L (Homo sapiens, UniProt O43526, W236L); assay: KCNQ2 mutant W236L in CHO cells; type: cell-based; settings: 10 μM retigabine; 10 μM or 25 μM NH29
T4 construct: expressed in transfected cells; host or cells: CHO cells
Method: as §1, with “FIG. 11E presents superimposed traces, showing the effects of Retigabine (RTG) and NH29 on the channel activity of KCNQ2 mutant W236L as measured at −40 mV; and FIG. 11F presents a bar diagram comparing the potentiating effect of NH29 and Retigabine on native KCNQ2 and KCNQ2 mutants, wherein the opener effect is expressed as percent of the control current in the absence of the opener.” left out
Voltage-clamp recordings in CHO cells were performed, using the whole-cell configuration of the patch-clamp technique. […] Series resistances (3-13 MΩ) were compensated (75-90%) and periodically monitored.

[7] = target: T5, KCNQ2 mutant S121A (Homo sapiens, UniProt O43526, S121A); assay: KCNQ2 S1-S2 mutant S121A in CHO cells; type: cell-based; settings: RTG
T5 construct: expressed in transfected cells; host or cells: CHO cells
From the text: as §2, §3

T5 sequence (O43526 whole entry S121A): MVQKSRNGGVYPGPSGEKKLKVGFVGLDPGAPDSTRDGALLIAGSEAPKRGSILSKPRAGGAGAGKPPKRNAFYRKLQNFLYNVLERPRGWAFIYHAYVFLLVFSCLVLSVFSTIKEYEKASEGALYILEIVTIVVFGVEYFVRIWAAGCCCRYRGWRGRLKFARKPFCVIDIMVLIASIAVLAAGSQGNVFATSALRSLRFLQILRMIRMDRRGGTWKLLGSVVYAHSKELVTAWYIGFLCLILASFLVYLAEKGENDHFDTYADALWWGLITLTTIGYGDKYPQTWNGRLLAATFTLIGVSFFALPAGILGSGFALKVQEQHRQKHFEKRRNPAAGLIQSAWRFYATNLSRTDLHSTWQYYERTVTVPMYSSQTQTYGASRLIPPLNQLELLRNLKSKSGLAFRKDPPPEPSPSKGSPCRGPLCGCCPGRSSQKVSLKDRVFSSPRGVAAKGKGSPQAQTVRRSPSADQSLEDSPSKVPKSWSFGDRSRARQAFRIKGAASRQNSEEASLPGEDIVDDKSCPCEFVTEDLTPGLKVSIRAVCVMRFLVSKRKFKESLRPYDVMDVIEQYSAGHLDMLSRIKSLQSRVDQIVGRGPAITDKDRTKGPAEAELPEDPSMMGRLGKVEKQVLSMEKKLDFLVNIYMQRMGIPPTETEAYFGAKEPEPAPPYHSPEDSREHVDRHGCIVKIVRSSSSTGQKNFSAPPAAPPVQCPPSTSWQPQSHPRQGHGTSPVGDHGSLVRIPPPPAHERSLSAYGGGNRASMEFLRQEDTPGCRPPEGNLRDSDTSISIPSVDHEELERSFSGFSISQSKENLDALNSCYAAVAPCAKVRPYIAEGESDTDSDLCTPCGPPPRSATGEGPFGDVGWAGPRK
T2 sequence (O43526 whole entry R207W): as the sequence (O43526 whole entry S121A) above, with A121S, R207W counted along it
T3 sequence (O43526 whole entry R198A): as the sequence (O43526 whole entry S121A) above, with A121S, R198A counted along it
T4 sequence (O43526 whole entry W236L): as the sequence (O43526 whole entry S121A) above, with A121S, W236L counted along it

Compound: Cl.NCCOCCOC(=O)Cc1ccccc1Nc1c(Cl)cccc1Cl [NH17]
- inhibition at 25 µM ([1]; CHO, 25 μM, membrane potentials from −60 to +50 mV, read-out: inhibition of the Kv7.2/3 current): > 90%
- Activity ([1]; M-channel modulation, Kv7.2 and Kv7.3 subunits coexpressed in CHO cells): potent M-channel blockers; also recorded: Blocker
- EC50 ([1]; compounds whose Activity is Blocker, read-out: EC50): 11 µM
- IC50 ([1]; recombinant Kv7.2/3 in CHO cells, read-out: IC50, blockade of the K+ currents): 11 µM
- number of evoked spikes [2]: 12±2
- decrease in rheobase current ([3]; 1 μM NH17): about 300 pA
- depolarization of DRG membrane potential (ΔV) ([3]; 1 μM NH17, within 2 minutes): +7±1 mV
- rheobase current to generate a single spike ([3]; 1 μM NH17, 2 ms injection, control 650±71 pA, n=6): 347±44 pA

Compound: CCOC(=O)Nc1ccc(NCc2ccc(F)cc2)cc1N [retigabine, N-(2-amino-4-(4-fluorobenzylamino)-phenyl)carbamic acid ethyl ester, reference compound]
- fold increase of current amplitude [4]: more than 6 fold
- fold increase of current amplitude [5]: 4.4 fold
- effect of point mutation W236L on the opener effect [6]: completely abolished the opener effect
- fold increase of current [7]: more than 5 fold
